Assay results published in patent US12152038B2, “Vasopressin receptor antagonists and products and methods related thereto” (Neumora Therapeutics, Inc., priority 2017, dated 2024).

molecular target: T1, human Arginine Vasopressin Receptor 1b (AVPR1b) (Homo sapiens, UniProt P47901); assay: Vasopressin V1b receptor antagonist assay (FLIPR calcium, CHO-AVPR1b cells); format: cell-based
T1 construct: expressed in transfected cells; host or cells: CHO (CHO-AVPR1b, kept under G418 selection)
T1 sequence (P47901 1-424): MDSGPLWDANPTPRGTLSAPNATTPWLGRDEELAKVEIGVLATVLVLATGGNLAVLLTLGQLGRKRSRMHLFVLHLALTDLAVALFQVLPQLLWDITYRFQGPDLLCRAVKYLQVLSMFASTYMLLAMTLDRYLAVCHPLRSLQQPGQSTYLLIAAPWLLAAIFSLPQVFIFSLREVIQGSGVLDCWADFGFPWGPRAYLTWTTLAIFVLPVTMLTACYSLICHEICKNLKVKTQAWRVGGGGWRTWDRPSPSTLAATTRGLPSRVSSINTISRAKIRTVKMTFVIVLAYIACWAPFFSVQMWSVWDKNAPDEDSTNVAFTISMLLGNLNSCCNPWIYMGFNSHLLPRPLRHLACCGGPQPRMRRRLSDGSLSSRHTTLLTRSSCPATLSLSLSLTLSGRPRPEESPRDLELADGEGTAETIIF
How it was run: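 CHO cells expressing human AVPR1b, loaded with Calcium-6 dye, were given compound (10-point, 1:3) for 15 min at 37 °C. Then AVP was added at its daily-determined EC80 in HBSS/HEPES. FLIPR fluorescence read for 3 min; antagonism seen as reduced AVP calcium response.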

**Q.** Which IC50 does the source give for `CCC1COc2cc(Cl)ccc2N1C(=O)N1CC2(C1)CN(c1ccc(F)cn1)C2` (single isomer, unassigned) [1-55-B] here?
**A.** Its IC50 is at least 1000 nM.

**Q.** For `CC1COc2cc(Cl)ccc2N1C(=O)N1CC2(C1)CN(c1ncccc1F)C2` (single isomer, unassigned) [1-57-A], which IC50 is on record?
**A.** Its IC50 is at least 1000 nM.

**Q.** For `CC1COc2cc(Cl)ccc2N1C(=O)N1CC2(C1)CN(c1cnccn1)C2` (single isomer, unassigned) [1-58-B], which IC50 is on record?
**A.** The IC50 was at least 1000 nM.

**Q.** For `COc1ccc2c(c1)OCC(C)N2C(=O)N1CC2(C1)CN(c1ccc(F)cn1)C2` (single isomer, unassigned) [1-59-B], which IC50 is on record?
**A.** Its IC50 is at least 1000 nM.

**Q.** How did the IC50 turn out when `CC1COc2cc(Cl)ccc2N1C(=O)N1CC2(C1)CN(c1ccccn1)C2` (single isomer, unassigned) [1-60-B] was run?
**A.** Its IC50 is at least 1000 nM.

**Q.** `CC1COc2cc(F)ccc2N1C(=O)N1CC2(C1)CN(c1cnccn1)C2` (single isomer, unassigned) [1-65-B] was tested. Which IC50 did it give?
**A.** The IC50 was at least 1000 nM.

**Q.** Which IC50 does the source give for `CC1COc2cc(F)ccc2N1C(=O)N1CC2(C1)CN(c1ccccn1)C2` (single isomer, unassigned) [1-66-B] here?
**A.** The IC50 was at least 1000 nM.

**Q.** With `CC1COc2cc(F)ccc2N1C(=O)N1CC2(C1)CN(c1ncccc1F)C2` (single isomer, unassigned) [1-67-A] as the compound, how does the IC50 read?
**A.** The IC50 was at least 1000 nM.

**Q.** `CC1COc2cc(Cl)ccc2N1C(=O)N1CC2(C1)CN(c1ccc(F)cn1)C2` (single isomer, unassigned) [1-73-A] was tested. Which IC50 did it give?
**A.** Its IC50 is at least 1000 nM.

**Q.** `CC1COc2cc(Cl)ccc2N1C(=O)N1CC2(C1)CN(c1ccc(F)cn1)C2` (single isomer, unassigned) [1-73-B] was tested. Which IC50 did it give?
**A.** Its IC50 is at least 1000 nM.

**Q.** With `O=C(N1CC2(C1)CN(c1ccc(F)cn1)C2)N1CCC(O)c2cc(Cl)ccc21` (single isomer, unassigned) [13-1-B] as the compound, how does the IC50 read?
**A.** Its IC50 is at least 1000 nM.

**Q.** With `CC1COc2cc(Cl)ccc2N1C(=O)N1CC2(C1)CN(c1ncc(F)cn1)C2` (single isomer, unassigned) [18-2-B] as the compound, how does the IC50 read?
**A.** Its IC50 is at least 1000 nM.

**Q.** How did the IC50 turn out when `Cc1cnc(N2CC3(CN(C(=O)N4c5ccc(Cl)cc5OCC4C)C3)C2)nc1` (single isomer, unassigned) [20-13-B] was run?
**A.** Its IC50 is at least 1000 nM.

**Q.** `CC1COc2cc(Cl)ccc2N1C(=O)N1CC2(C1)CN(c1cc(=O)n(C)cn1)C2` (single isomer, unassigned) [20-14-B] was tested. Which IC50 did it give?
**A.** The IC50 was at least 1000 nM.

**Q.** With `CC1COc2cc(Cl)ccc2N1C(=O)N1CC2(C1)CN(c1nn(C)c3ncccc13)C2` (single isomer, unassigned) [20-15-B] as the compound, how does the IC50 read?
**A.** The IC50 was at least 1000 nM.

**Q.** How did the IC50 turn out when `Cc1cccc(N2CC3(CN(C(=O)N4CCOc5cc(Cl)ccc54)C3)C2)n1` [1-3] was run?
**A.** Its IC50 is at least 1000 nM.

**Q.** Which IC50 does the source give for `O=C(N1CC2(C1)CN(c1cnc(F)cn1)C2)N1CCOc2cc(Cl)ccc21` [1-18] here?
**A.** Its IC50 is at least 1000 nM.

**Q.** How did the IC50 turn out when `Cc1cnc(N2CC3(CN(C(=O)N4CCOc5cc(Cl)ccc54)C3)C2)cn1` [1-20] was run?
**A.** The IC50 was at least 1000 nM.

**Q.** For `Cc1cncc(N2CC3(CN(C(=O)N4CCOc5cc(Cl)ccc54)C3)C2)n1` [1-22], which IC50 is on record?
**A.** Its IC50 is at least 1000 nM.

**Q.** `Cc1nc(N2CC3(CN(C(=O)N4CCOc5cc(Cl)ccc54)C3)C2)ccc1F` [1-30] was tested. Which IC50 did it give?
**A.** Its IC50 is at least 1000 nM.

**Q.** With `N#Cc1cccc(N2CC3(CN(C(=O)N4CCOc5cc(Cl)ccc54)C3)C2)n1` [1-39] as the compound, how does the IC50 read?
**A.** The IC50 was at least 1000 nM.

**Q.** With `COc1nccnc1N1CC2(CN(C(=O)N3CCOc4cc(Cl)ccc43)C2)C1` [1-43] as the compound, how does the IC50 read?
**A.** Its IC50 is at least 1000 nM.

**Q.** Which IC50 does the source give for `Cc1cc(F)nc(N2CC3(CN(C(=O)N4CCOc5cc(Cl)ccc54)C3)C2)c1` [1-45] here?
**A.** Its IC50 is at least 1000 nM.

**Q.** How did the IC50 turn out when `O=C(N1CC2(C1)CN(c1ccc(F)c(F)n1)C2)N1CCOc2cc(Cl)ccc21` [1-49] was run?
**A.** Its IC50 is at least 1000 nM.

**Q.** How did the IC50 turn out when `O=C(N1CC2(C1)CN(c1cc(F)cc(F)n1)C2)N1CCOc2cc(Cl)ccc21` [1-51] was run?
**A.** The IC50 was at least 1000 nM.

**Q.** For `N#Cc1ccnc(N2CC3(CN(C(=O)N4CCOc5cc(Cl)ccc54)C3)C2)c1` [1-53], which IC50 is on record?
**A.** Its IC50 is at least 1000 nM.

**Q.** `CC1COc2cc(Cl)ccc2N1C(=O)N1CC2(C1)CN(c1ccccn1)C2` (centres unmarked) [1-60] was tested. Which IC50 did it give?
**A.** Its IC50 is at least 1000 nM.

**Q.** `O=C(N1CC2(C1)CN(c1ccc(F)cn1)C2)N1CCOc2cc(F)ccc21` [1-64] was tested. Which IC50 did it give?
**A.** The IC50 was at least 1000 nM.

**Q.** With `CC1COc2cc(F)ccc2N1C(=O)N1CC2(C1)CN(c1ncccc1F)C2` (centres unmarked) [1-67] as the compound, how does the IC50 read?
**A.** The IC50 was at least 1000 nM.

**Q.** `COc1ccc(N2CC3(CN(C(=O)N4CCOc5cc(Cl)ccc54)C3)C2)nc1` [1-68] was tested. Which IC50 did it give?
**A.** The IC50 was at least 1000 nM.

**Q.** Which IC50 does the source give for `O=C(N1CC2(C1)CN(c1cccc(F)n1)C2)N1CCOc2cc(Cl)ccc21` [1-69] here?
**A.** The IC50 was at least 1000 nM.

**Q.** With `O=C(N1CC2(C1)CN(c1cc(F)ccn1)C2)N1CCOc2cc(Cl)ccc21` [1-70] as the compound, how does the IC50 read?
**A.** Its IC50 is at least 1000 nM.

**Q.** How did the IC50 turn out when `O=C(N1CC2(C1)CN(c1cccnn1)C2)N1CCOc2cc(Cl)ccc21` [1-71] was run?
**A.** The IC50 was at least 1000 nM.

**Q.** `O=C(N1CC2(C1)CN(c1cccnc1)C2)N1CCOc2cc(Cl)ccc21` [1-72] was tested. Which IC50 did it give?
**A.** The IC50 was at least 1000 nM.

**Q.** `CC1COc2cc(Cl)ccc2N1C(=O)N1CC2(C1)CN(c1noc3ccccc13)C2` (centres unmarked) [21-1, (6-(benzo[d]isoxazol-3-yl)-2,6-diazaspiro[3.3]heptan-2-yl)(7-chloro-3-methyl-2,3-dihydro-4H-benzo[b][1,4]oxazin-4-yl)methanone] was tested. Which IC50 did it give?
**A.** Its IC50 is at least 1000 nM.

**Q.** Which IC50 does the source give for `CC1COc2cc(Cl)ccc2N1C(=O)N1CC2(C1)CN(c1ncccc1C#N)C2` (centres unmarked) [21-2] here?
**A.** The IC50 was at least 1000 nM.

**Q.** With `Cc1cncc(N2CC3(CN(C(=O)N4c5ccc(Cl)cc5OCC4C)C3)C2)n1` (centres unmarked) [21-3] as the compound, how does the IC50 read?
**A.** Its IC50 is at least 1000 nM.

**Q.** With `Cc1cnnc(N2CC3(CN(C(=O)N4c5ccc(Cl)cc5OCC4C)C3)C2)c1` (centres unmarked) [21-4] as the compound, how does the IC50 read?
**A.** Its IC50 is at least 1000 nM.

**Q.** How did the IC50 turn out when `CC1COc2cc(Cl)ccc2N1C(=O)N1CC2(C1)CN(c1ncncc1F)C2` (centres unmarked) [21-5] was run?
**A.** Its IC50 is at least 1000 nM.

**Q.** Which IC50 does the source give for `CC1COc2cc(Cl)ccc2N1C(=O)N1CC2(C1)CN(c1ccncn1)C2` (centres unmarked) [21-6] here?
**A.** The IC50 was at least 1000 nM.

**Q.** Which IC50 does the source give for `Cc1nccc(N2CC3(CN(C(=O)N4c5ccc(Cl)cc5OCC4C)C3)C2)n1` (centres unmarked) [21-8] here?
**A.** The IC50 was at least 1000 nM.

**Q.** Which IC50 does the source give for `CCc1cnc(N2CC3(CN(C(=O)N4c5ccc(Cl)cc5OCC4C)C3)C2)nc1` (centres unmarked) [21-9] here?
**A.** The IC50 was at least 1000 nM.

**Q.** Which IC50 does the source give for `CC1COc2cc(Cl)ccc2N1C(=O)N1CC2(C1)CN(c1nccc(C(F)(F)F)n1)C2` (centres unmarked) [21-10] here?
**A.** The IC50 was at least 1000 nM.

**Q.** For `Cc1cc(N2CC3(CN(C(=O)N4c5ccc(Cl)cc5OCC4C)C3)C2)ncn1` (centres unmarked) [21-11], which IC50 is on record?
**A.** The IC50 was at least 1000 nM.
